Test results taken from patent US11110105B2, “Compounds, composition and uses thereof for treating cancer” (INSTITUT GUSTAVE ROUSSY, priority 2017, dated 2021).

Assays:
[1] = system: mouse melanoma cell line B16F10; assay: B3Z SL8-specific T-cell activation assay, B16F10; assay type: cell-based; settings: B16F10, Globin-intron-SL8; 15 μM or 35 μM
Experimental: B3Z SL8-specific T-cell activation after co-culture with (A) human melanoma A375, human lung carcinoma A549 or normal human lung fibroblast MRC5 cell lines, all transiently expressing the intron-derived SL8 peptide and the H2-K^b molecules and treated upstream with 2,5 μM or 6,25 μM isoginkgetin for 18 hours; or with (B) mouse sarcoma MCA205 or mouse melanoma B16F10 cell lines both transiently expressing the intron-derived SL8 peptide and treated upstream with 6,25 μM, 15 μM or 25 μM isoginkgetin for 18 hours. […]
Data are given as mean ±SEM. *P<0.05, **P<0.01, ***P<0.001 (unpaired student t test). […] Tumor size was assessed every 3 to 4 days until reaching the established ethical endpoints. […]
MCA205 and B16F10 mouse cell lines are transfected with the plasmid YFP-Globin-SL8-intron or with the PCDNA3 empty plasmid (negative control) with the transfection reagent jetPRIME (Ozyme) or GeneJuice (Millipore) respectively according to each manufacturer protocol. […] Finally, the β-galactosidase activity is measured using the FLUOstar OPTIMA (BMG LABTECH Gmbh, Offenburg, Germany). Results are expressed as mean ±SEM. *P<0.05, **P<0.01, ***P<0.001 (unpaired student t test).

[2] = MTT assay on MRC5 cell line; assay type: cell-based; settings: human, MRC5 fibroblast cells, read-out: % cell viability (±SEM)
Experimental: MCA205 mouse sarcoma cell line is cultured at 37° C. under 5% CO2 in RPMI 1640 medium (Life Technologies) in the presence of 1% glutamine, 1% sodium pyruvate, 1% non-essential amino-acids, 1% penicillin/streptomycin and 10% FBS (Life Technologies) under standard conditions. B16F10 mouse melanoma cell line, MRC5 human fibroblast cell line and A375 human melanoma cell line are cultured at 37° C. under 5% CO2 in DMEM medium (Life Technologies) containing 1% glutamine, 1% penicillin/streptomycin and 10% FCS under standard conditions. A549 human lung carcinoma cell line is cultured at 37° C. under 5% CO2 in DMEM/F12+Glutamax I in the presence of 1% Hepes, 1% sodium pyruvate and 10% FBS under standard conditions. Stable MCA205-Globin-SL8-intron cell line are cultured under the same condition as MCA205 cell line with additional 2 mg/ml G418 (geneticin from Life Technologies) for selection. Stable B16F10-Globin-SL8-intron cell line are cultured under the same condition as B16F10 cell line with additional 2 mg/ml G418 (geneticin from Life Technologies) for selection. The SL8/Kb-specific (B3Z) T-cell reporter hybridoma are cultured at 37° C. under 5% CO2 in RPMI 1640 medium (Life Technologies) in the presence of 1% glutamine, 0.1% β-galactosidase, 1% penicillin/streptomycin and 10% FCS under standard conditions. […]

MCA205 WT tumors = assay: Tumor challenge, MCA205 WT in immunodeficient Nu/Nu nude mice; assay type: in vivo, mouse; settings: 18 mg/kg intraperitoneally, days 5, 10 and 15
Experimental: (A) Experimental settings. Growth of (B) sarcoma MCA205 or (C) melanoma B16F10 cells that both stably express the globin-SL8-intron construct or (D) MCA205 Wild Type (WT) or (E) B16F10 WT cells that were subcutaneously inoculated on the flank of immunocompetent C57BL/6 mice injected intraperitoneally with 12 mg/kg or 18 mg/kg of isoginkgetin at days 5, 10 and 15 after inoculation. Tumor size was assessed every 3 to 4 days until reaching the established ethical endpoints. Each line represents the tumor size in area (mm^2) of 6 mice in each group. Size in area (mm^2) of (F) MCA205 globin-SL8-intron, (G) B16F10 globin-SL8-intron, (H) MCA205 WT or (I) B16F10 WT tumors subcutaneously inoculated on the flank of immunodeficient Nu/Nu Nude mice injected intraperitoneally with 18 mg/kg of isoginkgetin at days 5, 10 and 15 after inoculation. Data are presented at the day before the endpoints are reached.
Each line represents the tumor size in area (mm^2) of at least 6 mice in each group. The C right panel represents the tumor size at day 27. […]
Inventors then assessed the requirement of the immune response for isoginkgetin to reduce tumor growth Immunodeficient Nu/Nu nude mice were inoculated subcutaneously with either MCA205 or B16F10 cells that stably express the Globin-intron-SL8 or WT, and were treated with the same settings as previously described (FIG. 9A). […]

| SMILES | intron-SL8-derived antigen presentation (B3Z activation) [1] | viability at 2.5 µM ([2]; MRC5, 2.5 μM) [%] | viability at 6.25 µM ([2]; MRC5, 6.25 μM) [%] | tumor growth (MCA205 WT tumors) |
| --- | --- | --- | --- | --- |
| COc1ccc(-c2cc(=O)c3c(OC)cc(OP(=O)([O-])[O-])c(-c4cc(-c5cc(=O)c6c(OC)cc(OP(=O)([O-])[O-])cc6o5)ccc4OC)c3o2)cc1.[Na+].[Na+].[Na+].[Na+] [IM2P2] | does not impact it |  |  |  |
| COc1ccc(-c2cc(=O)c3c(O)cc(O)c(-c4cc(-c5cc(=O)c6c(O)cc(O)cc6o5)ccc4OC)c3o2)cc1 [Isoginkgetin, isoginkgetin] |  | 100 | 100 | No effect |
